The values that follow come from US11684592B2, “Multiresistant-tumour sensitiser” (Instituto Nacional de Neurologia Y Neurocirugia Manuel …, priority 2017, dated 2023).

The test system of data set [1] is C6 cells from rat glioma. As to the kind of experiment: Determination of apoptotic death by dual staining with propidium iodide and Hoechst 33342. It counts as cell-based. Conditions: curcumin 100 μM or Cur-[G2]-OH 300 μM, 24 or 48 hours. As for the experimental part: C6 cells from rat glioma (American Tissue Culture Collection, Rockville, Md., U.S.A. ATCC® CCL-107™) cultured under standard conditions in DMEM medium supplemented with Bovine Fetal Serum and 15% horse serum were used for the experiments.
1×10^4 C6 cells/well were cultured with 100 μl of Dulbecco's Modified Eagle's Medium (DMEM) medium for 24 hours in 96-well plates. The cells were treated with curcumin (100 μM), or with Cur-[G2]-OH (300 μM), or with the respective vehicle as a control. After 24- or 48-hours post-treatment, the cells were fixed with a mixture of methanol/acetone (1:1) and stained with propidium iodide (0.5 μg/ml), washed and Hoechst 33342 dye was added (0.1 μg/ml) for staining the nuclei. Cells were observed on the Cytation 3® plate reader (BioTek® Instruments, Inc.) using the DAPI (λ=377-447 nm) and Texas Red (λ=586-647 nm) filters, and the images were captured and analyzed with the Gen5 2.06® program.

In data set [2] the test system is C6 cells. As to the kind of experiment: Effect on glutathione (GSH) concentration, GT10 colorimetric test. It counts as cell-based, rat. As for the experimental part: Reduced glutathione (GSH) intracellular concentration were measured by a colorimetric test using the GT10 (Oxford Biomedical Research® kit), following the manufacturer's instructions. […] The controls were incubated with DMEM media only. Absorbance was read at 400 nm in Cytation3 ® cell Imaging Multi-mode reader (BioTeck, USA). It is observed that at low concentrations of Cur-[G2]-OH, the synthesis of GSH is induced in C6 cells, but at high concentrations GSH synthesis is inhibited and decrease its concentration in cells.

The subject of data set [3] is C6 cells from rat glioma. As to the kind of experiment: DNA fragmentation assay. Conditions: curcumin 100 μM or Cur-[G2]-OH 300 μM, 24 h. Type of data set: cell-based. As for the experimental part:
To determine DNA fragmentation, C6 cells (1×10^6) were seeded in Petri dishes (100 mm) at a confluence of 70%. They were treated with curcumin (100 μM) or Cur-[G2]-OH (300 μM) and incubated for 24 and 48 hours. Controls were incubated with vehicle only (DMSO or PBS respectively).
The DNA was extracted using Trizol (Invitrogen® 15596-026), according to the supplier's specifications, and quantified on a spectrophotometer (Genesys 8®). 20 μg of DNA from each sample was deposited on a 1.5% agarose gel. Electrophoresis was performed at 100 V for 90 minutes. The gel was stained with the Hydragreen™ dye (ACTGene ACT-IDM604) and DNA detection was performed using the ethidium bromide filter and UV light on the Chemidoc-It TS2 imager photodocument (UVP, CA).

For data set [4], the system named is p62, Beclin1 or LC3 in C6 cells. Briefly: Analysis of autophagy markers by immunofluorescence (simple staining). It counts as cell-based, rat. Conditions: Cur-[G2]-OH 3-150 μM, 6 and 24 hours. As for the experimental part:
Simple staining: 1×10^4 C6 cells/well were cultured with 100 μL of DMEM medium in 96-well plates and incubated 24 hours. Cells were treated with different concentrations of Cur-[G2]-OH (3, 6, 15, 30, 45, 90 and 150 μM), and incubated for 6 and 24 hours. Control cells were replaced only with fresh DMEM medium. The cells were washed with cold PBS and fixed with a mixture of methanol/acetone (1:1) for 5 minutes; they were washed with PBS and incubated with 1% BSA in PBST. Subsequently, they were incubated with the primary antibody (p62, Beclin1 or LC3) at 4° C. overnight. They were washed and incubated with the fluorochrome-conjugated secondary antibody (Abcam® ab150073 Alexa fluor 488) for 1 hour at room temperature. They were washed with PBS and the nucleus stained with Hoechst 33342 (0.1 μg/ml). The images were observed on a Cytation 3® multimodal plate reader and captured and analyzed with the Gen5® 2.06 program using the DAPI (λ=377-447 nm) and GFP (λ=469-525 nm) filters.

The subject of the next data set is normal cells. Briefly: Toxicity to normal cells. It counts as cell-based. Conditions: high concentration.
The test system of data set [5] is C6 cells. Briefly: Sensitization of tumor cells to oxidative stress (FeSO4), MTT cell viability. It counts as cell-based, rat. The procedure: C6 cells (1×10^5 cells/well) were seeded in 96 wells plates. At 24 h, a group of cells were treated with FeSO4 at concentrations of 50, 80, 100 and 150 μM or Cur-[G2]-OH at concentrations of 240 or 300 μM and incubated for an additional 24 hours.
Another group of cells were previously incubated by 2 h with the oxidizing agent FeSO4 at concentrations of 50, 80, 100 and 150 μM and subsequently washed for addition to cur-[G2]-OH at concentrations of 240 or 300 μM, continued to incubate until 24 h was completed. A last group of cells, first was treated with Cur-[G2]-OH at concentrations of 240 or 300 μM for 4 h and subsequently changed the medium and FeSO4 was added to concentrations of 50, 80, 100 or 150 μM continuing incubation for 20 hours more.
The colorimetric test based on the reduction of tetrazolium dye MTT (3-(4,5-dimethyltiazol-2-yl)-2,5-diphenyltetrazolium bromide) was used to determine cell viability (Terry L. et al. Cell Viability Assays. May 1, 2013). The formazan crystals were dissolved with a mixture of isopropanol/acetic acid and the absorbance was measured at 540 nm in a microplate reader (Molecular Devices, Sunnyvale, Calif., USA).
The data were statistically analyzed using a one-way ANOVA analysis, and Newman Keuls post-analysis for multiple comparisons (n=3, Mean=SEM).

For the molecule `COc1cc(/C=C/C(=O)/C=C(O)/C=C/c2ccc(OC(=O)C(C)(COC(=O)C(C)(CO)CO)COC(=O)C(C)(CO)CO)c(OC)c2)ccc1OC(=O)C(C)(COC(=O)C(C)(CO)CO)COC(=O)C(C)(CO)CO` [Cur-[G-2]-OH], the “nuclear staining / apoptotic morphology (propidium iodide and Hoechst 33342)” value with C6 cells from rat glioma [1] was “staining of the nuclei similar to that of the untreated controls”. The “decrease at GSH levels” value in the data set on C6 cells [2] (300 μM, 24 h) was “about 50%”. In the data set with C6 cells [2] (300 μM, 48 hours, data not shown), the GSH levels entry is listed as “complete elimination of GSH levels”. In addition, the “baseline levels of GSH” value in the data set with C6 cells [2] (intermediate doses 45 and 90 μM, 24 hours) is on record as “causes the baseline levels of GSH to increase considerably”. Moreover, the “DNA fragmentation (agarose gel electrophoresis)” value in the data set on C6 cells from rat glioma [3] is “DNA remains packed and does not migrate into the gel”. In data set [4], the “expression of Beclin1 (immunofluorescence)” value is “induces the expression of proteins Beclin1 and LC3, in a concentration-dependent manner”; the “expression of LC3 (immunofluorescence)” value was “induces the expression of proteins Beclin1 and LC3, in a concentration-dependent manner”; the “expression of p62 (immunofluorescence)” value was “significantly decreasing expression of p62”. Further, the “toxicity to normal cells” value in the data set on normal cells is on record as “not toxic to normal cells at high concentration”. For the same molecule, in the data set on C6 cells [5] (C6 cells first exposed to FeSO4 50-150 μM for 2 h, then Cur-[G2]-OH 240 or 300 μM, or administered simultaneously), the “cell viability / cytotoxicity in combination with FeSO4 (MTT)” value is given as “This synergism does not exist”. Also, the “cell viability / cytotoxicity in combination with FeSO4 (MTT)” value in the data set on C6 cells [5] (C6 cells pre-incubated with Cur-[G2]-OH 240 or 300 μM for 4 h, then FeSO4 50-150 μM for 20 h) is “synergism between Cur-[G-2]-OH and FeSO4”.
